{"source": "patent US6921811B2", "about": "“Bioactive coating composition and methods” (BioSurface Engineering Technologies, Inc., priority 1998, dated 2005)", "key": {"[1]": {"test_system": "Bovine aorta endothelial cells", "assay": "Capillary tube formation on coated low attachment wells", "type": "cell-based", "conditions": "5×10^3 cells per well; DMEM containing 10% FBS; 4 days; phase contrast microscopy", "experimental": "Low attachment 96 well plates were coated with saline, silyl-heparin complex, silyl-heparin-fibrinogen complex or silyl-heparin-bFGF complex. Bovine aorta endothelial cells (5×10^3 cells) were seeded into each well in DMEM containing 10% FBS. The cells were allowed to grow for 4 days and the cultures examined by phase contrast microscopy."}, "C3H10T1/2 cells [2]": {"test_system": "C3H10T1/2 cells", "assay": "Attachment of C3H10T1/2 cells to silyl-heparin coated wells complexed with adhesive molecules, crystal violet", "type": "cell-based, murine", "parameters": "unit not given here", "conditions": "after two hours; hydrogel-polystyrene 96-well plates coated with silyl-heparin complexes and the listed adhesive molecule; proteins 100 μg/ml, serum undiluted", "experimental": "Attachment of C3H10T1/2 cells after two hours to wells of 96-well, hydrogel-polystyrene plates coated with silyl-heparin complexes and the listed adhesive molecule was detected by staining with crystal violet. All proteins were used at a concentration of 100 μg/ml in buffered saline. Serum was used without dilution. Statistical significance was assessed relative to the values from buffered saline using Student's t-test, with * indicating p<0.05, ** indicating p<0.01 and *** indicating p<0.001."}, "bFGF": {"target": "T1, bFGF (Homo sapiens, UniProt P09038)", "T1 construct": "purchased Sigma Chemical Co", "T1 sequence (P09038 143-288, species assumed)": "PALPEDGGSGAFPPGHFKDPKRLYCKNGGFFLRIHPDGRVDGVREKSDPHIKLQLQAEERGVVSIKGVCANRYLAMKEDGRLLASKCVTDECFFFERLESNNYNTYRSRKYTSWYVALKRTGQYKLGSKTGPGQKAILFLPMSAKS", "assay": "Effect of adhesive molecules complexed to silyl-heparin on subsequent bFGF binding", "conditions": "adhesive molecule complexed to silyl-heparin at 100 μg/mL before bFGF", "experimental": "Wells of 96 well polystyrene microtiter plates, with a well surface area of 0.32 cm^2, were coated with 30 μl of silyl heparin for 15 minutes at 37° C. After rinsing and air-drying, bFGF (Sigma Chemical Co.) in PBS/BSA was added in 150 μL aliquots in doubling dilutions. The plate was incubated at 37° C. for 1 hour and rinsed 5 times in PBS. An aliquot 150 μl of PBS/BSA containing 1:500 rabbit anti-FGF antibodies were added, incubated for 1 hour and rinsed. In some cases an irrelevant rabbit antibody was used at a similar concentration (rabbit anti-TGF-receptor II, Santa Cruz Biotechnology). An aliquot of PBS/BSA containing 1:500 HRPO-conjugated donkey anti-rabbit IgG added, and after incubation and rinsing ABTS-chromogen added. All antibody solutions were filtered through 0.2 micron filters prior to use. The absorbance was monitored at 405 nm. […] When anti-TGF-II (irrelevant antibody directed against the transforming growth factor receptor) was used instead of anti-FGF and at the same anti-dilutions, no bFGF was detected. When TGF-β, at a concentration of 40 ng was used as the growth factor molecule, no activity was detected with anti-bFGF antibodies.\nMurine type IV collagen, human fibrinogen and bovine fibronectin isolated from plasma were bound to silyl-heparin complexes bound to wells of polystyrene microtiter plates, at a concentration of 100 μg/mL in PBS/BSA. […]"}, "[3]": {"test_system": "GS-9L cells (rat gliosarcoma)", "assay": "Cell attachment, spreading and growth on coated low-attachment polystyrene wells", "type": "cell-based", "conditions": "10^4 cells/well, serum-containing medium", "text": "(§1) Several cell types were used, including GS-9L cells (rat gliosarcoma), C3H10T1/2 (murine fibroblasts), Jurkat (human T cell), bovine aorta endothelial (BAE) cells and rat lymphocytes. GS-9L and C3H10T1/2 cells were maintained in log phase growth and detached from cultureware using Versene and collected by centrifugation. Jurkat cells grew as single cell suspensions and were collected by centrifugation. Rat lymphocytes were collected from heparinized blood by density gradient isolation over Ficoll-Hypaque® media. The collected cells were rinsed once by low speed centrifugation and suspended in either serum-free Dulbecco's Modified Eagles Medium (DMEM) containing pyruvate or RPMI 1640 containing 10% fetal bovine serum (FBS) supplemented with pyruvate. Aliquots of 10^4 cells in 100 μL were used in subsequent adhesion studies.\n(§2) The cells were examined after plating using an inverted, phase-contrast microscope. At selected time points up to 4 days after initial seeding, the cells were rinsed three times in saline and fixed in buffered 10% formalin or 35% ethanol. In some cases, the cells were stained in situ with a 0.01 % aqueous solution of crystal violet. The amount of attachment was scored visually or quantitated. To establish the relative number of cells bound, crystal violet stained cells were dissolved in a solution of 70% ethanol containing 0.1% sodium dodecyl sulfate and 0.38 M Tris and the absorbance monitored at 610 nm, using the methods of Scragg and Ferreira (Anal Biochem 198:80-5, 1991) and Grando et al. (Skin Pharmacol 6:135-47, 1993).\n(§3) The cells of Example 7 were added to untreated polystyrene wells, wells coated with silyl-heparin as in Example 4, with silyl-heparin-fibronectin as in Example 5, and with only fibronectin by incubation as described in Example 5. […] Cells were seeded at a concentration of 10^4 cells/well in serum-containing medium.\nThe cells grew to confluency by 4 days. […] No effort was made to grow the cells in a defined- or serum-low medium known to support growth."}, "[4]": {"test_system": "C3H10T1/2 (murine fibroblasts)", "assay": "Cell attachment, spreading and growth on coated low-attachment polystyrene wells", "type": "cell-based", "text": "as §1, §2, §3\nThe cells grew to confluency by 4 days. […] No effort was made to grow the cells in a defined- or serum-low medium known to support growth. […]"}, "C3H10T1/2 cells [5]": {"test_system": "C3H10T1/2 cells", "assay": "Cross-titration of fibronectin and silyl-heparin needed to support cell attachment", "type": "cell-based, murine", "conditions": "fibronectin titrated from 4 μg/well on silyl-heparin applied at 30 μg/well; 24 hours; crystal violet, 610 nm", "experimental": "The optimal amount of fibronectin and silyl-heparin to support attachment of C3H10T1/2 cells was determined by cross-titration, as shown on FIG. 1. […] The fall-off for the silyl-heparin was more gradual. The curve of the relative amount of silyl-heparin on the substrate following serial dilution generally followed the cell attachment curve.\nIn FIG. 1, fibronectin (Δ—Δ) or silyl-heparin (•—•) were titrated to determine the quantity needed to support attachment of C3H10T1/2 cells. All dilutions were performed in quadruplicate in wells of 96-well plates of low-attachment polystyrene. For titration of fibronectin, silyl-heparin was applied at 30 μg/well in 70% ethanol as in Example 4. After rinsing, fibronectin was applied in doubling dilutions of phosphate buffered saline starting from 4 μg/well. For titration of silyl-heparin, silyl-heparin was applied in doubling dilutions in 70% ethanol starting from silyl-heparin concentrations of 30 μg/well. Fibronectin was then applied in saline at 4 μg/well. Cells were at a concentration of 10^4 cells/well in growth medium. For both experiments, the cells were allowed 24 hours to attach and then were rinsed and fixed in buffered formalin. The cells were stained for 5 minutes with 0.01% aqueous crystal violet and the absorbance at 610 nm determined."}, "C3H10T1/2 cells [6]": {"test_system": "C3H10T1/2 cells", "assay": "C3H10T1/2 cell attachment to a variety of coated substrates", "type": "cell-based, murine", "experimental": "as §2\nThe general applicability of silyl-heparin-fibronectin complex was evaluated by applying this coating using the methods of Examples 4 and 5 to a variety of surfaces, including polystyrene, polylactide:polyglycolide, polycaprolactone, polyurethane and stainless steel. […] They did, however, bind moderately well to polylactide:polyglycolide and to polycaprolactone, and very well to stainless steel."}, "[7]": {"conditions": "affinity binding of fibronectin to heparin; cited from earlier work"}}, "note": "Marks after values point to notes of the source that are not given here.", "data": [{"substance": "bFGF: basic fibroblast growth factor (Sigma Chemical Co.)", "values": [{"measurement": "capillary tube formation", "setting": "[1]", "value": "Tubes did not form"}]}, {"substance": "fibrinogen", "values": [{"measurement": "attachment of C3H10T1/2 cells by crystal violet staining, Average ± S.E.", "setting": "C3H10T1/2 cells [2]", "value": "1.63 ± 0.17**"}, {"measurement": "effect on binding of bFGF to the silyl-heparin-adhesive molecule complex", "setting": "bFGF", "value": "less significant decrease in binding"}, {"measurement": "capillary tube formation", "setting": "[1]", "value": "Tubes did not form"}]}, {"substance": "fibronectin: bovine plasma fibronectin, adhesive molecule", "values": [{"measurement": "attachment of C3H10T1/2 cells by crystal violet staining, Average ± S.E.", "setting": "C3H10T1/2 cells [2]", "value": "1.00 ± 0.10**"}, {"measurement": "CELL ATTACHMENT", "setting": "[3]", "value": "isolated C3H10T1/2 cells and isolated GS-9L cells were found attached"}, {"measurement": "effect on binding of bFGF to the silyl-heparin-adhesive molecule complex", "setting": "bFGF", "value": "significantly decreased the binding of bFGF"}, {"measurement": "CELL ATTACHMENT", "setting": "[4]; C3H10T1/2, coated low-attachment polystyrene wells, 10^4 cells/well, serum-containing medium", "value": "isolated C3H10T1/2 cells and isolated GS-9L cells were found attached"}, {"measurement": "EC50 to support attachment of C3H10T1/2 cells", "setting": "C3H10T1/2 cells [5]", "value": "approximately 0.5 μg/well"}, {"measurement": "C3H10T1/2 CELL ATTACHMENT", "setting": "C3H10T1/2 cells [6]; surface: Polyactide:polyglycolide", "value": "improve the attachment of cells"}, {"measurement": "C3H10T1/2 CELL ATTACHMENT", "setting": "C3H10T1/2 cells [6]; surface: Polystyrene", "value": "did not significantly support cell attachment"}, {"measurement": "C3H10T1/2 CELL ATTACHMENT", "setting": "C3H10T1/2 cells [6]; surface: Polyurethane", "value": "improve the attachment of cells"}, {"measurement": "affinity constant", "setting": "[7]", "value": "approximately 10^8 M/L"}]}, {"substance": "gelatin", "values": [{"measurement": "attachment of C3H10T1/2 cells by crystal violet staining, Average ± S.E.", "setting": "C3H10T1/2 cells [2]", "value": "0.15 ± 0.05"}]}, {"substance": "heparin [reference compound]", "values": [{"measurement": "effect of heparin added to the medium on attachment or growth of cells", "setting": "[4]; up to 10 U of heparin, C3H10T1/2 plated onto silyl-heparin-fibronectin coated plates", "value": "did not inhibit the attachment or growth"}, {"measurement": "effect of coating or treatment on C3H10T1/2 cell attachment", "setting": "C3H10T1/2 cells [6]; regardless of the substrate", "value": "did not inhibit attachment"}]}, {"substance": "poly-l-lysine [reference compound]", "values": [{"measurement": "attachment of C3H10T1/2 cells by crystal violet staining, Average ± S.E.", "setting": "C3H10T1/2 cells [2]", "value": "1.18 ± 0.06***"}]}, {"substance": "poly-l-ornithine [reference compound]", "values": [{"measurement": "attachment of C3H10T1/2 cells by crystal violet staining, Average ± S.E.", "setting": "C3H10T1/2 cells [2]", "value": "0.92 ± 0.28*"}]}, {"substance": "transferrin: protein used at 100 μg/ml on silyl-heparin coated wells", "values": [{"measurement": "attachment of C3H10T1/2 cells by crystal violet staining, Average ± S.E.", "setting": "C3H10T1/2 cells [2]", "value": "0.15 ± 0.03"}]}]}
